Results published in BigSolDB 2.1.

C[C@@H]1CC[C@@]2(OC1)O[C@H]1C[C@H]3[C@@H]4CC=C5C[C@@H](O)CC[C@]5(C)[C@H]4CC[C@]3(C)[C@H]1[C@@H]2C
in n-pentanol
Settings | solubility (mole fraction)
293.2 K | 0.00462
298.2 K | 0.0051
303.2 K | 0.00621
308.2 K | 0.0075
313.2 K | 0.00866
318.2 K | 0.0102
323.2 K | 0.0122
328.2 K | 0.0148

C=C(C)[C@@H]1CC[C@]2(CO)CC[C@]3(C)[C@H](CC[C@@H]4[C@@]5(C)CC[C@H](O)C(C)(C)[C@@H]5CC[C@]43C)[C@@H]12
solubility (mole fraction)
Settings | in DMF | in NMP | in acetonitrile | in n-dodecane | in n-hexadecane | in n-nonanol | in n-octanol | in n-pentanol | in sec-butanol | in water
293.2 K | 0.00208 | 0.00549 | 0.000269 | 1.5e-05 | 4.6e-05 | 0.00217 | 0.0016 | 0.000894 | 0.000701 | 4e-06
298.2 K | 0.00244 | 0.00569 | 0.000473 | 1.6e-05 | 5.3e-05 | 0.00234 | 0.00162 | 0.00096 | 0.000728 | 5e-06
303.2 K | 0.00294 | 0.0059 | 0.000697 | 1.9e-05 | 5.7e-05 | 0.00254 | 0.00179 | 0.00108 | 0.000813 | 6e-06
308.2 K | 0.00334 | 0.00615 | 0.00104 | 2.3e-05 | 6.5e-05 | 0.00292 | 0.00186 | 0.0012 | 0.000845 | 9e-06
313.2 K | 0.00368 | 0.00635 | 0.00137 | 2.5e-05 | 7.6e-05 | 0.00324 | 0.00209 | 0.00132 | 0.000941 | 1.4e-05
318.2 K | 0.00426 | 0.00653 | 0.00193 | 3e-05 | 8.3e-05 | 0.00371 | 0.00229 | 0.00149 | 0.00108 | 1.8e-05
323.2 K | 0.00461 | 0.00676 | 0.00244 | 3.5e-05 | 9.8e-05 | 0.00431 | 0.00269 | 0.00175 | 0.0012 | 2.5e-05
328.2 K | 0.00518 | 0.00697 | 0.00341 | 4.5e-05 | 0.000117 | 0.0051 | 0.00341 | 0.00198 | 0.00148 | 3.3e-05
